Test results from US20220369638A1, “USE OF THE SUCCINATE DEHYDROGENASE INHIBITOR PYDIFLUMETOFEN FOR CONTROLLING CLAVICEPS PURPUREA AND REDUCING SCLEROTIA IN CEREALS” (Bayer Aktiengesellschaft, priority 2019, published 2022).

Tested on: Claviceps purpurea
Experiment: Field trials 2018 in Canada: foliar application at early flowering, sclerotia (ergot bodies) counted in harvested wheat grain
Assay type: in vivo
Conditions: 75 grams/ha Pydiflumetofen, spring wheat (AC Goodeve) or durum wheat (AC Strongfield), crop per trial not stated
Protocol: Pydiflumetofen as well as market standards were applied according to table 2 between Jul. 6-9, 2018 between BBCH stage 61-63 (early flowering). Assessment of sclerotia was conducted in fall 2018 on harvested grain samples. […] A mixture of Pydiflumetofen and Propiconazole is also available as a suspension concentrate 275 SC formulation (275 grams of total active ingredients) with 150 grams of Pydiflumetofen and 125 grams of Propiconazole per litre under the name […] be tested for reduction of sclerotia in cereals, in particular in spring wheat, winter wheat, durum, hybrid spring wheat, hybrid winter wheat, winter rye, spring rye, hybrid winter rye, hybrid spring rye, and […] plants.

Which results are given for `CON(C(=O)c1cn(C)nc1C(F)F)C(C)Cc1c(Cl)cc(Cl)cc1Cl` (stereo not drawn) [Pydiflumetofen, 3-(difluoromethyl)-N-methoxy-1-methyl-N-[1-methyl-2-(2,4,6-trichlorophenyl)ethyl]-1H-pyrazole-4-carboxamide]?
Trial No 1 number of Ergot bodies per kg seed (applied BBCH 61-63, untreated 0.5): 0.5 per kg seed; Trial No 3 number of Ergot bodies per kg seed (applied BBCH 61-63, untreated 1.3): 0 per kg seed; Trial No 2 number of Ergot bodies per kg seed (applied BBCH 61-63, untreated 2.3): 0.3 per kg seed
